Experimental data taken from PubChem BioAssay (NCI).
Values joined by “and” are separate entries in the source; they are usually repeats but may differ in a detail not shown here. Equal values may be shown once.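 96-well plates; 48 h exposure; 5 concentrations. Endpoints by linear interpolation between flanking doses. Not reached: highest tested concentration assigned. GI50 marks 50% less growth. The concentration for full growth arrest is given as TGI.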

What was measured:
Test in all cases: DTP human tumour cell line panel, 48 h
[1] = system: HOP-92 NSCLC
[2] = system: COLO 205 colon
[3] = system: HL-60(TB) leukemia
[4] = system: OVCAR-4 ovarian
[5] = system: SNB-78 CNS
[6] = system: NCI-H226 lung
[7] = system: NCI/ADR-RES ovarian
[8] = system: HS 578T breast
[9] = system: SK-MEL-2 melanoma

Row | Structure (SMILES) | TGI [1] | TGI [2] | TGI [3] | TGI [4] | TGI [5] | TGI [6] | TGI [7] | TGI [8] | TGI [9] | GI50 [1] | GI50 [2] | GI50 [3] | GI50 [9] | GI50 [4] | GI50 [5] | GI50 [6] | GI50 [7] | GI50 [8]
1 | COC(=O)/C=C(C)/C=C/c1c(C)c(C(C)=O)c(C)n1C | 92.8 µM | > 100 µM | > 100 µM | > 100 µM | > 100 µM | > 100 µM | – | – | – | – | – | – | – | – | – | – | – | –
2 | O=[N+]([O-])c1cc(C(F)(F)F)cc2n[se]nc12 | 5.1 µM | 4.21 µM | 4.02 µM | 3.84 µM | 25.9 µM | 46.8 µM | 5.11 µM | 75.6 µM | 22.7 µM | – | – | – | – | – | – | – | – | –
3 | CC(O)(c1ccc(OCCC[N+](C)(C)C)cc1)C(C)(O)c1ccc(OCCC[N+](C)(C)C)cc1 (configuration not stated) | > 100 µM | > 100 µM | > 100 µM | > 100 µM | > 100 µM | > 100 µM | – | – | > 100 µM | – | – | – | – | – | – | – | – | –
4 | CC(Oc1ccc2c(=O)cc(-c3ccccc3)oc2c1)C(=O)O (configuration not stated) | > 100 µM | > 100 µM | > 100 µM | > 100 µM | > 100 µM | > 100 µM | – | – | – | – | – | – | – | – | – | – | – | –
5 | CCCCCCCCCCCCCP(=O)(OC)OC | 35 µM | 34.2 µM | 32.9 µM | 34.6 µM | 35.5 µM | 35.9 µM | – | – | 31.3 µM | – | – | – | – | – | – | – | – | –
6 | C=C1CCCC2OC(OC)CCC12 (configuration not stated) | > 100 µM | > 100 µM | > 100 µM | > 100 µM | > 100 µM | > 100 µM | – | – | > 100 µM | – | – | – | – | – | – | – | – | –
7 | CC(=O)CCn1[nH]c(=O)c(Cl)c(Cl)c1=O | > 100 µM | – | > 100 µM | > 100 µM | > 100 µM | > 100 µM | – | – | > 100 µM | – | – | – | – | – | – | – | – | –
8 | COc1ccc(C(=O)Nc2ccn(CCOC(=O)c3ccc(OC)cc3)c(=O)n2)cc1 | > 100 µM | > 100 µM | > 100 µM | > 100 µM | > 100 µM | > 100 µM | – | – | > 100 µM | – | – | – | – | – | – | – | – | –
9 | CCCCCC1CC=CC(NC(=O)OCc2ccccc2)C1/C=C/CCCC1OCCO1 (configuration not stated) | > 100 µM | > 100 µM | 33.4 µM | > 100 µM | > 100 µM | > 100 µM | – | – | > 100 µM | – | – | – | – | – | – | – | – | –
10 | CC1(C)C2=CCCC(=O)[C@@]2(C)CC[C@@H]1O | > 100 µM | > 100 µM | > 100 µM | > 100 µM | > 100 µM | > 100 µM | – | – | > 100 µM | – | – | – | – | – | – | – | – | –
11 | O=C(CC1(O)C(=O)Nc2c(Cl)cc(Cl)cc21)c1ccc([N+](=O)[O-])cc1 (configuration not stated) | 75.5 µM | > 92.7 µM | > 52.5 µM | 31.2 µM | > 78.9 µM | > 73.3 µM | – | – | > 100 µM | – | – | – | – | – | – | – | – | –
12 | CC[C@@]1(O)C(=O)OCc2c1cc1n(c2=O)Cc2cc3cccc(N)c3nc2-1 | > 100 µM | > 100 µM | > 100 µM | > 100 µM | > 100 µM | 27.9 µM | – | – | 65.6 µM | > 100 µM | 13.9 µM | 3.52 µM | 29.7 µM | 7.57 µM | > 100 µM | 2.57 µM | – | –
13 | C=C1C(=O)O[C@H]2C3OC3(C)CC/C=C(/C(=O)OC)[C@@H](OC(C)=O)[C@H](OC(=O)C3(C)OC3C)[C@H]12 (some centres not stated) | 3.13 µM and 1.26 µg/mL | 1.81 µM and 1.86 µM and 0.495 µg/mL | 477 nM and 655 nM and 0.679 µg/mL | 3.63 µM and 4.47 µg/mL | 6.79 µg/mL | 3.25 µM and 31 µg/mL | – | 24.4 µM | – | 0.817 µg/mL | 506 nM and 487 nM and 0.263 µg/mL | 154 nM and 0.285 µg/mL | – | 1.88 µM and 2.18 µg/mL | 1.81 µg/mL | 1.6 µM and 8.12 µg/mL | – | –
14 | C=C(C)C1CC=C(C)C(O)([C@@]2(O)C[C@H](C(=C)C)CC=C2C)C1 (some centres not stated) | 40.6 µM | – | 47.2 µM | 56.2 µM | > 100 µM | – | – | – | 35.9 µM | – | – | – | – | – | – | – | – | –
15 | CCC1=CCC(P(=O)(c2ccccc2)c2ccccc2)CC1C (configuration not stated) | 71.6 µM | > 100 µM | 53.6 µM | > 100 µM | > 100 µM | > 100 µM | – | – | 83.5 µM | – | – | – | – | – | – | – | – | –
16 | CN(CO)c1nc(N(C)CO)nc(N(C)CO)n1 | 64.9 µM and 64.1 µM | 44.1 µM and 20.9 µM | 75.1 µM and 16.5 µM | 39.1 µM and 55.6 µM | 25.3 µM | > 70.3 µM and 21.4 µM | 54.6 µM and 57.4 µM | 55 µM and 78.3 µM | 32.1 µM and 11.2 µM | 29.9 µM and 27.3 µM | 20.9 µM | 26 µM | 15.5 µM and 5.47 µM | 18.9 µM and 23.8 µM | – | 24.8 µM and 9.99 µM | 21.7 µM and 20.7 µM | 21.4 µM
17 | Nc1nc(N)c(CCCCc2ccccc2)c(/C=C/c2ccc([N+](=O)[O-])cc2)n1 | 2.21 µM | 47.6 µM | 3.14 µM | 18.4 µM | 12.8 µM | 55.6 µM | – | – | 10.8 µM | – | – | – | – | – | – | – | – | –
18 | CCN(CC)CCCNc1nccc2c(C)c3[nH]c4ccncc4c(=O)c3cc12 | 7.64 µM | 12.5 µM | 8.58 µM | 3.07 µM | 13.7 µM | 10.2 µM | – | – | 9.34 µM | – | – | – | – | – | – | – | – | –
19 | O=c1oc2c(O)c(O)cc3c(=O)oc4c(O)c(O)cc1c4c23 | 99 µM | > 100 µM | > 100 µM | > 100 µM | > 100 µM | 57.4 µM | – | – | > 100 µM | – | > 100 µM | > 100 µM | – | – | > 100 µM | – | – | –
20 | CCCCCCCCCCCCCC(=O)NO | 43.6 µM | 20.1 µM | 23.7 µM | 39.3 µM | > 95 µM | 19 µM | – | – | 47.6 µM | – | – | – | – | – | – | – | – | –
21 | c1ccc(N2CCN(CCCN3CCc4c([nH]c5ccccc45)C3c3cccnc3)CC2)cc1 (configuration not stated) | > 100 µM | 56.2 µM | > 58.3 µM | > 100 µM | > 100 µM | > 100 µM | – | – | > 100 µM | – | – | – | – | – | – | – | – | –
22 | CN(CCc1ccccn1)/[N+]([O-])=N/O (tested in a mixture with another compound) | > 100 µM | > 100 µM | > 100 µM | > 100 µM | > 100 µM | > 100 µM | – | – | > 100 µM | – | – | – | – | – | – | – | – | –
